Assay results as given in ChEMBL document CHEMBL1159092, “Polar 3-alkylidene-5-pivaloyloxymethyl-5'-hydroxymethyl-gamma-lactones as protein kinase C ligands and antitumor agents” (Bioorg Med Chem Lett, 2010).
Converted amounts (≈) assume the structure as drawn.

Experiments:
[1] = Antitumor activity against human Hs 578T cells; type: functional
COLO 205 = assay: Antitumor activity against human COLO205 cells; type: functional
SK-MEL-5 = assay: Antitumor activity against human SK-MEL-5 cells; type: functional
[2] = Antitumor activity against human NCI-H322 cells; type: functional
K562 = assay: Antitumor activity against human K562 cells; type: functional
MOLT-4F = assay: Antitumor activity against human MOLT4F cells; type: functional
CCRF-CEM = assay: Antitumor activity against human CCRF-CEM cells; type: functional
HL-60 = assay: Antitumor activity against human HL60 cells; type: functional
[3] = biological target: Protein kinase C alpha type (Homo sapiens, UniProt P17252); assay: Displacement of [20-3H]phorbol 12,13-dibutyrate from recombinant PKCalpha

Compound | GI50 [1] [µg/mL] | GI50 (COLO 205) [µg/mL] | GI50 (SK-MEL-5) [µg/mL] | GI50 [2] [µg/mL] | GI50 (K562) [µg/mL] | GI50 (MOLT-4F) [µg/mL] | GI50 (CCRF-CEM) [µg/mL] | GI50 (HL-60) [µg/mL] | Ki [3] [nM]
COc1cccc2c1C(=O)c1c(O)c3c(c(O)c1C2=O)C[C@@](O)(C(=O)CO)C[C@@H]3O[C@H]1C[C@H](N)[C@H](O)[C@H](C)O1.Cl [DOXORUBICIN HYDROCHLORIDE] | 0.596 | 0.523 | 0.481 | 0.615 | 0.375 | 0.277 | 0.181 | 0.413 | 
CC(C)(C)C(=O)OCC1(CO)C/C(=C\CCCCCCCCCCC=O)C(=O)O1 (stereo not given) |  |  |  |  |  |  |  |  | 30.3
CC(C)(C)C(=O)OCC1(CO)C/C(=C\CCCCCCCCCCCO)C(=O)O1 (stereo not given) | > 10 | 2.49 (≈ 6.03 µM) | 5.81 (≈ 14.1 µM) | > 10 | 1.09 (≈ 2.64 µM) | 1.34 (≈ 3.26 µM) | 0.65 (≈ 1.58 µM) | > 10 | 14.5
CC(C)(C)C(=O)OCC1(CO)C/C(=C\CCCCCCCCCCCCCCCO)C(=O)O1 (stereo not given) |  |  |  |  |  |  |  |  | 6.4
CCCCCCCCC(O)CCCCCC/C=C1\CC(CO)(COC(=O)C(C)(C)C)OC1=O (stereo not given) | > 10 | 8.91 (≈ 19 µM) | > 10 | > 10 | 7.3 (≈ 15.6 µM) | 7.91 (≈ 16.9 µM) | 5.71 (≈ 12.2 µM) | > 10 | 118
CC(C)CCOCCCCCCC/C=C1\CC(CO)(COC(=O)C(C)(C)C)OC1=O (stereo not given) |  |  |  |  |  |  |  |  | 7.74
CC(C)(C)C(=O)OCC1(CO)C/C(=C\CCCCCCC=O)C(=O)O1 (stereo not given) |  |  |  |  |  |  |  |  | 39.3
CC(C)(C)C(=O)OCC1(CO)C/C(=C\CCCCCCCO)C(=O)O1 (stereo not given) |  |  |  |  |  |  |  |  | 378
CC(=O)OCCCCCCCCCCCCCCC/C=C1\CC(CO)(COC(=O)C(C)(C)C)OC1=O (stereo not given) | > 10 | 2.1 (≈ 4.11 µM) | 5.62 (≈ 11 µM) | > 10 | 0.959 (≈ 1.88 µM) | 1.55 (≈ 3.03 µM) | 7.55 (≈ 14.8 µM) | > 10 | 9.3
COCCCCCCCCCCCCCCC/C=C1/CC(CO)(COC(=O)C(C)(C)C)OC1=O (stereo not given) | 6.77 (≈ 14 µM) | 0.178 (≈ 0.369 µM) | 2.13 (≈ 4.42 µM) | > 10 | 0.138 (≈ 0.286 µM) | 1.64 (≈ 3.4 µM) | < 0.1 | 3.97 (≈ 8.22 µM) | 5
CCCCCCCCCCCCC/C=C1\CC(CO)(COC(=O)C(C)(C)C)OC1=O (stereo not given) | 2.27 (≈ 5.34 µM) | 0.253 (≈ 0.596 µM) | 0.779 (≈ 1.83 µM) | > 10 | < 0.1 | 0.227 (≈ 0.535 µM) | 0.14 (≈ 0.33 µM) | 2.4 (≈ 5.65 µM) | 7.83
CC(C)(C)C(=O)OCCCCCCCCCCCCCCC/C=C1\CC(CO)(COC(=O)C(C)(C)C)OC1=O (stereo not given) | 5.24 (≈ 9.48 µM) | 0.597 (≈ 1.08 µM) | 3.46 (≈ 6.25 µM) | > 10 | 0.352 (≈ 0.637 µM) | 0.605 (≈ 1.09 µM) | > 10 | 7.78 (≈ 14.1 µM) | 10.5
CCCCCOCCCCCCC/C=C1\CC(CO)(COC(=O)C(C)(C)C)OC1=O (stereo not given) | 3 (≈ 7.04 µM) | 0.491 (≈ 1.15 µM) | 2.99 (≈ 7.02 µM) | 9.52 (≈ 22.3 µM) | 1.15 (≈ 2.69 µM) | 1.03 (≈ 2.41 µM) | 0.877 (≈ 2.06 µM) | 2.96 (≈ 6.94 µM) | 8.1
CCCCCCCCCOCCC/C=C1\CC(CO)(COC(=O)C(C)(C)C)OC1=O (stereo not given) |  |  |  |  |  |  |  |  | 7.44
CC(C)(C)C(=O)OCC1(CO)C/C(=C\CCCCCCCCCCCCCCC(=O)O)C(=O)O1 (stereo not given) |  |  |  |  |  |  |  |  | 29.7
COCCCCCCCCCCC/C=C1\CC(CO)(COC(=O)C(C)(C)C)OC1=O (stereo not given) | 7.34 (≈ 17.2 µM) | 0.541 (≈ 1.27 µM) | 2.81 (≈ 6.58 µM) | > 10 | 0.516 (≈ 1.21 µM) | 2.38 (≈ 5.59 µM) | 0.701 (≈ 1.64 µM) | 5.22 (≈ 12.2 µM) | 8.2

Compound | GI50 [1] [µg/mL] | GI50 (COLO 205) [µg/mL] | GI50 (SK-MEL-5) [µg/mL] | GI50 [2] [µg/mL] | GI50 (K562) [µg/mL] | GI50 (MOLT-4F) [µg/mL] | GI50 (CCRF-CEM) [µg/mL] | GI50 (HL-60) [µg/mL] | Ki [3] [nM]
CC(C)(C)C(=O)OCC1(CO)C/C(=C\CCCCCCCCCCCCCCCOC=O)C(=O)O1 (stereo not given) |  |  |  |  |  |  |  |  | 8
CCCCCCCCCCCCC/C=C1/CC(CO)(COC(=O)C(C)(C)C)OC1=O (stereo not given) |  |  |  |  |  |  |  |  | 7.15
CC(C)(C)C(=O)OCC1(CO)C/C(=C/CCCCCCCCCCCCCCC=O)C(=O)O1 (stereo not given) | > 10 | 5.14 (≈ 11 µM) | > 10 | > 10 | 2.58 (≈ 5.53 µM) | 2.02 (≈ 4.33 µM) | > 10 | > 10 | 11.4
COCCOCOCCCCCCC/C=C1\CC(CO)(COC(=O)C(C)(C)C)OC1=O (stereo not given) |  |  |  |  |  |  |  |  | 323
CC(C)(C)C(=O)OCC1(CO)C/C(=C\CCCCCCCCCCCCCCCN=[N+]=[N-])C(=O)O1 (stereo not given) |  |  |  |  |  |  |  |  | 15.6
CC(C)(C)C(=O)OCC1(CO)C/C(=C\CCCCCCCOC2CCCC2)C(=O)O1 (stereo not given) |  |  |  |  |  |  |  |  | 10.2
CC(C)(C)C(=O)OCC1(CO)C/C(=C/CCCCCCCCCCCCCCCO)C(=O)O1 (stereo not given) | > 10 | 2.34 (≈ 4.99 µM) | 5.34 (≈ 11.4 µM) | > 10 | 0.872 (≈ 1.86 µM) | 1.37 (≈ 2.93 µM) | 6.63 (≈ 14.1 µM) | 6.39 (≈ 13.6 µM) | 8.24
CCCCCCCCCOCCCCCCC/C=C1\CC(CO)(COC(=O)C(C)(C)C)OC1=O (stereo not given) | 4.64 (≈ 9.61 µM) | 0.264 (≈ 0.547 µM) | 1.43 (≈ 2.96 µM) | > 10 | 0.156 (≈ 0.323 µM) | 2.14 (≈ 4.43 µM) | 0.304 (≈ 0.63 µM) | 4.53 (≈ 9.37 µM) | 3.2
COCCCCCCCCCCCCCCC/C=C1\CC(CO)(COC(=O)C(C)(C)C)OC1=O (stereo not given) | 5.45 (≈ 11.3 µM) | 0.118 (≈ 0.244 µM) | 1.75 (≈ 3.63 µM) | > 10 | 0.189 (≈ 0.392 µM) | 0.498 (≈ 1.03 µM) | 4.26 (≈ 8.83 µM) | 4.65 (≈ 9.64 µM) | 4.4
COCCCCCCC/C=C1\CC(CO)(COC(=O)C(C)(C)C)OC1=O (stereo not given) |  |  |  |  |  |  |  |  | 191
CC(C)(C)C(=O)OCC1(CO)C/C(=C\CCCCCCCCCCCCCCCN)C(=O)O1 (stereo not given) | > 10 | 1.53 (≈ 3.28 µM) | 5.1 (≈ 10.9 µM) | 8.43 (≈ 18 µM) | 1.52 (≈ 3.25 µM) | 3.17 (≈ 6.77 µM) | 2.82 (≈ 6.03 µM) | > 10 | 36.4
COC(=O)CCCCCCCCCCCCCC/C=C1\CC(CO)(COC(=O)C(C)(C)C)OC1=O (stereo not given) | > 10 | 3.86 (≈ 7.77 µM) | 7.8 (≈ 15.7 µM) | > 10 | 0.856 (≈ 1.72 µM) | > 10 | 0.691 (≈ 1.39 µM) | > 10 | 6.83
COCOCCCCCCC/C=C1\CC(CO)(COC(=O)C(C)(C)C)OC1=O (stereo not given) | > 10 | 2.01 (≈ 5.01 µM) | 8.33 (≈ 20.8 µM) | > 10 | 3.69 (≈ 9.22 µM) | 1.84 (≈ 4.6 µM) | > 10 | > 10 | 198
COC(=O)CCCCCC/C=C1\CC(CO)(COC(=O)C(C)(C)C)OC1=O (stereo not given) |  |  |  |  |  |  |  |  | 533
CC(=O)NCCCCCCCCCCCCCCC/C=C1\CC(CO)(COC(=O)C(C)(C)C)OC1=O (stereo not given) | > 10 | 4.74 (≈ 9.29 µM) | > 10 | > 10 | 3.38 (≈ 6.64 µM) | 6.35 (≈ 12.5 µM) | 1.08 (≈ 2.11 µM) | > 10 | 8.25
CC(C)(C)C(=O)OCC1(CO)C/C(=C\CCCCCCCCCCCCCCC=O)C(=O)O1 (stereo not given) | > 10 | > 10 | > 10 | > 10 | 5.11 (≈ 10.9 µM) | > 10 | 0.933 (≈ 2 µM) | > 10 | 6.38
